Earlier results, collected in patent US10500232B2, “Small molecule cellular reprogramming to generate neuronal cells” (The J. David Gladstone Institutes, a testamentary trust …, priority 2013, dated 2019).

Target: mGlu4 (Homo sapiens, UniProt Q14833)
Details: read-out: EC50 against mGlu4; cited from earlier work

Sequence of mGlu4 (Q14833 33-912): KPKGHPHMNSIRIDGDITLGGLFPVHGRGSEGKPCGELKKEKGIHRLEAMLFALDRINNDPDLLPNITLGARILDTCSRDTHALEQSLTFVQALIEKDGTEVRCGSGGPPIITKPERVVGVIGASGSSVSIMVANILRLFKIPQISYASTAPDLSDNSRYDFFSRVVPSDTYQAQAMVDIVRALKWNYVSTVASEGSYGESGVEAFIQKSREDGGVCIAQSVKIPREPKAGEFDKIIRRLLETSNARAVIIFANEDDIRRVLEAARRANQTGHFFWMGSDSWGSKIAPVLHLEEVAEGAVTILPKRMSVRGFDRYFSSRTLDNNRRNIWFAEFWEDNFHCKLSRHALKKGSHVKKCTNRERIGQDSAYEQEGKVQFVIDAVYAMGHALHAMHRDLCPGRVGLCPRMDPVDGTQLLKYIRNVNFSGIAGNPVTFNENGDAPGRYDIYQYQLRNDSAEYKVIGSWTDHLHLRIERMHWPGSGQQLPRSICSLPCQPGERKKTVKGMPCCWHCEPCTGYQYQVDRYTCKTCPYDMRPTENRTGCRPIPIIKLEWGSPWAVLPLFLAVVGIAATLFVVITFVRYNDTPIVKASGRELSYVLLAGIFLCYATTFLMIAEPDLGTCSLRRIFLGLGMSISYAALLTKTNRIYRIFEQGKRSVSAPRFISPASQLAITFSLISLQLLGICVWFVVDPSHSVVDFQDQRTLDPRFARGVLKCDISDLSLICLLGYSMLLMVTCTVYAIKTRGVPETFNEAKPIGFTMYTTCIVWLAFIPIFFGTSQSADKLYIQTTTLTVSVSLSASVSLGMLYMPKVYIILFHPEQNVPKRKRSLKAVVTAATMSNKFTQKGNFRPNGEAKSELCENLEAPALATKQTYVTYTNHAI

Compound: COc1cc(NC(=O)c2ccccn2)ccc1Cl [ML128, N-(4-chloro-3-methoxyphenyl)pyridine-2-carboxamide]
- EC50: 200 to 2300 nM
